Values joined by “and” are separate entries in the source; they are usually repeats but may differ in a detail not shown here. Identical values can stand only once. Toxic doses and inconclusive results are not listed.
Test system: L1210 leukemia ip in BDF1 mice, survival T/C
Experiment: NCI In Vivo Anticancer Drug Screen. Data for tumor model L1210 Leukemia (intraperitoneal) in B6D2F1 (BDF1) mice
Conditions: endpoint: mean survival time, higher = longer survival
In short: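 Antitumor effect is assessed in tumor-bearing animals. Survival in the compound arm is compared with a vehicle-dosed control arm and expressed as their quotient.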

NC(Cc1c[nH]c2ccc(N(CCCl)CCCl)cc12)C(=O)O (stereo not given)
T/C (dose: 0.01 mg/kg/injection, schedule: Q#A X Z (ip), vehicle: acid diluted with saline): 124 % of control
T/C (dose: 0.02 mg/kg/injection, schedule: Q01DX010 (iv), vehicle: acid diluted with saline): 103 % of control
T/C (dose: 0.02 mg/kg/injection, schedule: Q01DX Z (ip), vehicle: acid diluted with saline): 108 % of control
T/C (dose: 0.02 mg/kg/injection, schedule: Q01DX Z (ip), vehicle: saline): 119 % of control
T/C (dose: 0.02 mg/kg/injection, schedule: Q01DX Z (sc), vehicle: acid diluted with saline): 114 % of control
T/C (dose: 0.05 mg/kg/injection, schedule: Q07DX Z (ip), vehicle: acid diluted with saline): 111 % of control
T/C (dose: 0.06 mg/kg/injection, schedule: Q01DX010 (iv), vehicle: acid diluted with saline): 108 % of control
T/C (dose: 0.06 mg/kg/injection, schedule: Q01DX Z (sc), vehicle: acid diluted with saline): 106 % of control
T/C (dose: 0.09 mg/kg/injection, schedule: Q#A X Z (ip), vehicle: acid diluted with saline): 167 % of control
T/C (dose: 0.1 mg/kg/injection, schedule: Q03DX Z (oral), vehicle: acid diluted with saline): 110 % of control
T/C (dose: 0.12 mg/kg/injection, schedule: Q01DX Z (oral), vehicle: acid diluted with saline): 102 % of control
T/C (dose: 0.12 mg/kg/injection, schedule: Q#A X Z (oral), vehicle: acid diluted with saline): 121 % of control
T/C (dose: 0.13 mg/kg/injection, schedule: Q01DX Z (ip), vehicle: saline): 169 % of control
T/C (dose: 0.13 mg/kg/injection, schedule: Q01DX Z (oral), vehicle: acid diluted with saline): 101 % of control
T/C (dose: 0.15 mg/kg/injection, schedule: Q01DX Z (oral), vehicle: saline): 96 % of control
T/C (dose: 0.16 mg/kg/injection, schedule: Q07DX Z (ip), vehicle: acid diluted with saline): 103 % of control
T/C (dose: 0.18 mg/kg/injection, schedule: Q01DX009 (ip), vehicle: saline): 115 % of control
T/C (dose: 0.18 mg/kg/injection, schedule: Q01DX Z (sc), vehicle: acid diluted with saline): 120 % of control
T/C (dose: 0.19 mg/kg/injection, schedule: Q03DX Z (oral), vehicle: acid diluted with saline): 114 % of control
T/C (dose: 0.26 mg/kg/injection, schedule: Q01DX Z (ip), vehicle: saline): 153 % of control and 157 % of control
T/C (dose: 0.27 mg/kg/injection, schedule: Q#A X Z (ip), vehicle: acid diluted with saline): 97 % of control
T/C (dose: 0.3 mg/kg/injection, schedule: Q01DX Z (oral), vehicle: saline): 100 % of control
T/C (dose: 0.38 mg/kg/injection, schedule: Q03DX Z (oral), vehicle: acid diluted with saline): 112 % of control
T/C (dose: 0.39 mg/kg/injection, schedule: Q01DX Z (ip), vehicle: saline): 166 % of control
T/C (dose: 0.5 mg/kg/injection, schedule: Q03DX Z (oral), vehicle: acid diluted with saline): 120 % of control
T/C (dose: 0.5 mg/kg/injection, schedule: Q#A X Z (oral), vehicle: acid diluted with saline): 107 % of control
T/C (dose: 0.54 mg/kg/injection, schedule: Q01DX Z (ip), vehicle: acid diluted with saline): 198 % of control
T/C (dose: 0.54 mg/kg/injection, schedule: Q01DX Z (sc), vehicle: acid diluted with saline): 160 % of control
T/C (dose: 0.58 mg/kg/injection, schedule: Q01DX Z (ip), vehicle: saline): 190 % of control
T/C (dose: 0.6 mg/kg/injection, schedule: Q01DX Z (oral), vehicle: saline): 101 % of control
T/C (dose: 0.75 mg/kg/injection, schedule: Q01DX009 (ip), vehicle: saline): 176 % of control
T/C (dose: 0.75 mg/kg/injection, schedule: Q03DX Z (oral), vehicle: acid diluted with saline): 114 % of control
T/C (dose: 0.87 mg/kg/injection, schedule: Q01DX Z (ip), vehicle: saline): 211 % of control
T/C (dose: 0.9 mg/kg/injection, schedule: Q07DX Z (oral), vehicle: acid diluted with saline): 114 % of control
T/C (dose: 1.0 mg/kg/injection, schedule: Q01DX (oral), vehicle: acid diluted with saline): 189 % of control
T/C (dose: 1.0 mg/kg/injection, schedule: Q03DX Z (oral), vehicle: acid diluted with saline): 117 % of control
T/C (dose: 1.2 mg/kg/injection, schedule: Q01DX Z (oral), vehicle: saline): 115 % of control
T/C (dose: 1.3 mg/kg/injection, schedule: Q07DX003 (ip), vehicle: acid diluted with saline): 155 % of control
T/C (dose: 1.5 mg/kg/injection, schedule: Q01DX009 (ip), vehicle: saline): 160 % of control and 260 % of control
T/C (dose: 1.5 mg/kg/injection, schedule: Q03DX (oral), vehicle: acid diluted with saline): 117 % of control
T/C (dose: 1.5 mg/kg/injection, schedule: Q03DX Z (oral), vehicle: acid diluted with saline): 183 % of control
T/C (dose: 1.6 mg/kg/injection, schedule: Q01DX Z (sc), vehicle: acid diluted with saline): 103 % of control
T/C (dose: 1.75 mg/kg/injection, schedule: Q01DX 1 (oral), vehicle: acid diluted with saline): 102 % of control and 107 % of control
T/C (dose: 1.75 mg/kg/injection, schedule: Q07DX (oral), vehicle: acid diluted with saline): 112 % of control
T/C (dose: 1.8 mg/kg/injection, schedule: Q07DX Z (oral), vehicle: acid diluted with saline): 117 % of control
T/C (dose: 1.87 mg/kg/injection, schedule: Q01DX001 (oral), vehicle: carboxymethylcellulose (CMC)): 106 % of control
T/C (dose: 2.0 mg/kg/injection, schedule: Q01DX (oral), vehicle: acid diluted with saline): 102 % of control
T/C (dose: 3.5 mg/kg/injection, schedule: Q01DX 1 (oral), vehicle: acid diluted with saline): 110 % of control and 124 % of control
T/C (dose: 3.5 mg/kg/injection, schedule: Q07DX (oral), vehicle: acid diluted with saline): 114 % of control
T/C (dose: 3.75 mg/kg/injection, schedule: Q01DX001 (ip), vehicle: carboxymethylcellulose (CMC)): 192 % of control
T/C (dose: 3.75 mg/kg/injection, schedule: Q01DX001 (oral), vehicle: carboxymethylcellulose (CMC)): 108 % of control
T/C (dose: 4.0 mg/kg/injection, schedule: Q01DX (oral), vehicle: acid diluted with saline): 106 % of control
T/C (dose: 5.0 mg/kg/injection, schedule: Q01DX001 (ip), vehicle: saline): 295 % of control
T/C (dose: 7.0 mg/kg/injection, schedule: Q01DX 1 (oral), vehicle: acid diluted with saline): 110 % of control and 124 % of control
T/C (dose: 7.0 mg/kg/injection, schedule: Q07DX (oral), vehicle: acid diluted with saline): 123 % of control
T/C (dose: 7.0 mg/kg/injection, schedule: Q07DX Z (oral), vehicle: acid diluted with saline): 116 % of control
T/C (dose: 7.5 mg/kg/injection, schedule: Q01DX001 (ip), vehicle: carboxymethylcellulose (CMC)): 264 % of control
T/C (dose: 7.5 mg/kg/injection, schedule: Q01DX001 (oral), vehicle: carboxymethylcellulose (CMC)): 114 % of control
T/C (dose: 8.0 mg/kg/injection, schedule: Q01DX (oral), vehicle: acid diluted with saline): 95 % of control
T/C (dose: 8.0 mg/kg/injection, schedule: Q03DX Z (oral), vehicle: acid diluted with saline): 119 % of control
T/C (dose: 10.0 mg/kg/injection, schedule: Q01DX001 (ip), vehicle: saline): 270 % of control
T/C (dose: 14.0 mg/kg/injection, schedule: Q01DX 1 (oral), vehicle: acid diluted with saline): 105 % of control and 115 % of control
T/C (dose: 14.0 mg/kg/injection, schedule: Q07DX Z (oral), vehicle: acid diluted with saline): 107 % of control
T/C (dose: 15.0 mg/kg/injection, schedule: Q01DX001 (oral), vehicle: carboxymethylcellulose (CMC)): 119 % of control
T/C (dose: 16.0 mg/kg/injection, schedule: Q01DX (oral), vehicle: acid diluted with saline): 95 % of control
T/C (dose: 16.0 mg/kg/injection, schedule: Q01DX Z (oral), vehicle: acid diluted with saline): 116 % of control
T/C (dose: 20.0 mg/kg/injection, schedule: Q01DX001 (oral), vehicle: saline): 119 % of control
T/C (dose: 28.0 mg/kg/injection, schedule: Q01DX 1 (oral), vehicle: acid diluted with saline): 104 % of control and 118 % of control
T/C (dose: 28.0 mg/kg/injection, schedule: Q01DX001 (oral), vehicle: acid diluted with saline): 108 % of control and 118 % of control
T/C (dose: 28.0 mg/kg/injection, schedule: Q07DX (oral), vehicle: acid diluted with saline): 120 % of control
T/C (dose: 40.0 mg/kg/injection, schedule: Q01DX001 (oral), vehicle: saline): 86 % of control
T/C (dose: 56.0 mg/kg/injection, schedule: Q01DX 1 (oral), vehicle: acid diluted with saline): 113 % of control and 121 % of control
T/C (dose: 56.0 mg/kg/injection, schedule: Q01DX001 (oral), vehicle: acid diluted with saline): 117 % of control and 122 % of control
T/C (dose: 56.0 mg/kg/injection, schedule: Q07DX (oral), vehicle: acid diluted with saline): 123 % of control
T/C (dose: 80.0 mg/kg/injection, schedule: Q01DX001 (oral), vehicle: saline): 102 % of control
T/C (dose: 112.0 mg/kg/injection, schedule: Q01DX001 (oral), vehicle: acid diluted with saline): 120 % of control
T/C (dose: 168.0 mg/kg/injection, schedule: Q01DX001 (oral), vehicle: acid diluted with saline): 122 % of control
T/C (dose: 204.0 mg/kg/injection, schedule: Q01DX 1 (oral), vehicle: acid diluted with saline): 106 % of control
T/C (dose: 204.0 mg/kg/injection, schedule: Q01DX001 (oral), vehicle: acid diluted with saline): 107 % of control
T/C (dose: 1.0 micrograms/kg/injection, schedule: Q07DX 2 (ip), vehicle: acid diluted with saline): 101 % of control
T/C (dose: 5.0 micrograms/kg/injection, schedule: Q07DX 2 (ip), vehicle: acid diluted with saline): 102 % of control
T/C (dose: 16.0 micrograms/kg/injection, schedule: Q07DX 2 (ip), vehicle: acid diluted with saline): 117 % of control
T/C (dose: 22.0 micrograms/kg/injection, schedule: Q01DX Z (ip), vehicle: saline): 104 % of control
T/C (dose: 33.0 micrograms/kg/injection, schedule: Q01DX Z (ip), vehicle: saline): 107 % of control
T/C (dose: 45.0 micrograms/kg/injection, schedule: Q01DX009 (ip), vehicle: saline): 109 % of control
T/C (dose: 50.0 micrograms/kg/injection, schedule: Q01DX Z (ip), vehicle: saline): 107 % of control
T/C (dose: 50.0 micrograms/kg/injection, schedule: Q07DX 2 (ip), vehicle: acid diluted with saline): 123 % of control
T/C (dose: 75.0 micrograms/kg/injection, schedule: Q01DX Z (ip), vehicle: saline): 115 % of control
T/C (dose: 750.0 micrograms/kg/injection, schedule: Q01DX009 (ip), vehicle: saline): 207 % of control
T/C (dose: 1500.0 micrograms/kg/injection, schedule: Q01DX009 (ip), vehicle: saline): 219 % of control
